Source: paper PMC4447598 (Annals of neurology, 2015)
Several values for one entry are separate records, joined by “and”; a condition that tells them apart may be missing. Equal values may be shown once.

How the values were obtained:
Chronic = assay type: in vivo, beagle dogs
Pyk2 [1] = biological target: Pyk2 (Homo sapiens, UniProt Q14289); experiment: LanthaScreen Europium Kinase Binding Assay
[2] = AZD0530 pharmacokinetics in mice; assay type: in vivo, mouse
Tau = Tau biochemistry and histology in 3xTg-AD mice; assay type: in vivo, mouse
Pyk2 [3] = experiment: Activated pPyk2 levels in brain of APP/PS1 and WT mice; assay type: in vivo, mouse
APP/PS1 transgenic mice [4] = experiment: Novel object recognition; assay type: in vivo, mouse; settings: 5 mg/kg/d, 6 weeks treatment
[5] = tested on: NR2B subunit of NMDA-type Glu receptors; experiment: Acute brain slice assay, pY-1472 NR2B immunoblot relative to total NR2B; assay type: cell-based, mouse
[6] = ref [27]; cited from earlier work
Pyk2 [7] = experiment: Acute brain slice assay, p-Pyk2; assay type: cell-based, mouse
APP/PS1 transgenic mice [8] = experiment: Morris water maze; assay type: in vivo, mouse
APP/PS1 transgenic mice [9] = experiment: Glial reaction in cortex; assay type: in vivo, mouse; settings: 5 mg/kg/d, 7 weeks
APP/Aβ = experiment: APP metabolism and Aβ accumulation in brain of treated mice; assay type: in vivo, mouse; settings: 5 mg/kg/d
APP/PS1 transgenic mice [10] = experiment: Synapse density in dentate gyrus; assay type: in vivo, mouse; settings: 5 mg/kg/d, 7 weeks
[11] = RIPA extracts of TBS-insoluble material, 5 mg/kg/d 40 days
[12] = RIPA-insoluble fractions, 5 mg/kg/d 40 days
[13] = APP/PS1 mice, 5 mg/kg/d, 1-2 weeks treatment
[14] = APP/PS1 mice, 5 mg/kg/d, 3-5 weeks treatment

Sequence of Pyk2 (Homo sapiens, UniProt Q14289) (Q14289 whole entry): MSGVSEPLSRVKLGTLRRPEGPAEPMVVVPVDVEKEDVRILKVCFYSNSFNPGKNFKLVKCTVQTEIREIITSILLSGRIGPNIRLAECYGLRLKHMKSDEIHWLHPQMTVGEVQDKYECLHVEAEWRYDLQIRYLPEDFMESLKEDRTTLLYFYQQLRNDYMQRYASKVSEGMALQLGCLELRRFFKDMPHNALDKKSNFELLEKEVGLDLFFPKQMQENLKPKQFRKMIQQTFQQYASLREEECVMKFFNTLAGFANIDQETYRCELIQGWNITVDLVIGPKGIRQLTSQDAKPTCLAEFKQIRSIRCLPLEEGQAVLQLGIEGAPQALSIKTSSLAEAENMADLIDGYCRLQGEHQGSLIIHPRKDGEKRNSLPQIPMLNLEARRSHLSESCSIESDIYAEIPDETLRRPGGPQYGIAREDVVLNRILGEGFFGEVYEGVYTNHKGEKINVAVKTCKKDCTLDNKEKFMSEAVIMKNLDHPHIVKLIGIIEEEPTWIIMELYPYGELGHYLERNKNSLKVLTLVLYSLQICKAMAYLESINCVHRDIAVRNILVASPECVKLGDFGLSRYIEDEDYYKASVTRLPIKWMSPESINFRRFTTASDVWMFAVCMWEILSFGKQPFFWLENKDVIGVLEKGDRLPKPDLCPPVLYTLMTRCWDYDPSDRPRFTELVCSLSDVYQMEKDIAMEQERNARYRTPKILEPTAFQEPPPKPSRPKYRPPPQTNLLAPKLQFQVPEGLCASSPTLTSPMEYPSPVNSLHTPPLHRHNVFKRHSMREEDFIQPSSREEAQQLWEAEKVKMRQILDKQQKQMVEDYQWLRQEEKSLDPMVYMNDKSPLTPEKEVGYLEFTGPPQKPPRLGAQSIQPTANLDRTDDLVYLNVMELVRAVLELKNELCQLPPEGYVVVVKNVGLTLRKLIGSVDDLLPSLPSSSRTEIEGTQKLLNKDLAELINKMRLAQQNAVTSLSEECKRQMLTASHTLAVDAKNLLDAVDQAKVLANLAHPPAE

## CN1CCN(CCOc2cc(OC3CCOCC3)c3c(Nc4c(Cl)ccc5c4OCO5)ncnc3c2)CC1 [AZD0530, N-(5-chloro-1,3-benzodioxol-4-yl)-7-[2-(4-methylpiperazin-1-yl)ethoxy]-5-(tetrahydro-2H-pyran-4-yloxy)quinazolin-4-amine]
Chronic; both, beagle, dog, in vivo, po
  NOAEL at 273 days: > 5 mg/kg/day
Chronic; dog, 0.5, 2 or 5 mg/kg/d, 273 days
  body weight, hematological and coagulation parameters vs vehicle: no statistically significant difference
Chronic; dog, 39 weeks oral gavage at 0.5, 2 and 5 mg/kg/day
  tolerability: tolerated at all dose levels tested
Chronic; dog, any group including 5 mg/kg/d, 273 days
  abnormal measurement or pathology: No significantly abnormal measurement or evidence of pathology was detected
Pyk2 [1]
  IC50: > 250 µM
Pyk2 [1]; AZD0530 at concentrations up to 100 μM
  Pyk2 substrate binding: unaffected
[2]; Mus musculus, po, read-out: expected inhibition of Fyn kinase activity in brain
  inhibition at 5 mg/kg/day: ≥ 50%
[2]; mouse, 5 mg/kg/d for 3 days
  apparent brain half-life: 16 h
[2]; mouse, 5 mg/kg/d oral b.i.d., 30-60 min after dosing, 5 mg/kg/day
  peak brain level: 27 ng/g and 50 nM
[2]; mouse, 5 mg/kg/d, one pooled sample, 5 mg/kg/day
  peak CSF level: 7 ng/ml and 13 nM
[2]; mouse, 6 oral b.i.d. doses, 30-60 min after dosing
  CSF level as % of brain level: about 35%
[2]; mouse, CSF, oral, 5 mg/kg/day, trough CSF range calculated from multiple brain samples, 5 mg/kg/d
  concentration at 12 h: 3.1 ng/mL to 7.6 ng/mL and 5.8 nM to 14 nM
[2]; mouse, brain, oral, 5 mg/kg/day, apparent brain half-life, 5 mg/kg/d for 3 days
  half-life: ~16 h
Tau; 3xTg-AD mice, 5 mg/kg/d, data not shown
  human Tau transgene mRNA (qRT-PCR): not changed
Tau; [11]
  decrease of pTau pS396 vs control 3xTg: 53%
  decrease of total Tau vs control 3xTg: 74%
Tau; [12]
  decrease of insoluble human Tau: 56%
  decrease of insoluble total Tau: 41%
Pyk2 [3]; APP/PS1 mice, 5 mg/kg/d for 7 weeks
  increase of p(Y402)Pyk2 in hippocampal CA1 and CA3 cell body layers (histology): reversed by AZD0530 treatment
Pyk2 [3]; WT mice
  pPyk2 level: does not significantly alter pPyk2
Pyk2 [3]; aged APP/PS1 mice, 5 mg/kg/d
  activated pPyk2 level (immunoblot), hippocampus: reduces activated pPyk2 level to that of WT mice exposed to vehicle
APP/PS1 transgenic mice [4]
  Novel Object Recognition performance: performance equal to the WT mice
[5]; brain slices without Aβo
  basal phosphorylation of NR2B: suppresses
[5]; brain slices, 1 μM Aβo 30 min
  Aβo-induced phosphorylation of NR2B: full blocks
[6]
  half-life of the compound in humans: between one and two days
Pyk2 [7]; brain slices without Aβo
  basal Pyk2 activation: suppresses
Pyk2 [7]; brain slices, 1 μM Aβo 30 min
  Aβo stimulation of Pyk2 activation: blocks
APP/PS1 transgenic mice [8]; APP/PS1 mice, 2 mg/kg/d, 3-5 weeks treatment
  water maze performance: fails to improve water maze performance
APP/PS1 transgenic mice [8]; [13]
  impaired rate of acquisition during swims to a hidden platform: no improvement
  memory recall during 60 sec probe trial: no improvement
APP/PS1 transgenic mice [8]; [14]
  latencies to the hidden platform (spatial learning): eliminates the pre-existing transgenic deficit
  probe trial, preference for target quadrant: same strong preference for the target quadrant as do WT mice
APP/PS1 transgenic mice [8]; WT mice, 5 mg/kg/d
  latencies to a hidden platform: not altered
APP/PS1 transgenic mice [9]
  astrocytic reaction (GFAP): no significant change
  extent of microglial induction (Iba1): significantly reduced
APP/Aβ; 3xTg-AD mice, data not shown
  APP/Aβ metabolism: no effect
APP/Aβ; APP/PS1 mice, 7 weeks
  APP fragments, Aβ plaque and different Aβ species vs vehicle-treated transgenic mice: no difference
APP/PS1 transgenic mice [10]; APP/PS1 transgenic mice
  synapse density (PSD-95, SV2a puncta): fully restores synaptic puncta to WT levels
APP/PS1 transgenic mice [10]; WT mice
  synapse density (PSD-95, SV2a puncta): does not alter synapse density
